Where a name gives a salt, the structure may show the parent alone.
Assays:
[1] = biological target: T1, recombinant 5-HT2c receptor (human) (Homo sapiens, UniProt P28335); assay: 5-HT2c competition binding assay ([125I]-DOI SPA)
T1 construct: expressed in transfected cells
Procedure: [^125I]-(±)DOI binding experiments are carried out in SPA 96-well format. Membranes used in this assay are prepared from AV-12 cells stably expressing recombinant 5-HT2c receptor (human). The incubation is initiated by the addition of a mixture of WGA PVT SPA beads (0.5 mg/well, Perkin Elmer (MA, USA), RPNQ0001) and 2.5 μg membranes to assay buffer (50 mM Tris-HCl, 10 mM MgCl2, 0.5 mM EDTA, 10 μM pargyline, 0.1% ascorbic acid, pH7.4) containing 0.2 nM [[^125I]-(±)DOI and varying concentrations of the test compound (10 point concentration response curves). Non-specific binding is determined in the presence of 20 μM 1-(1-Naphthyl)piperazine. Samples are incubated for four hours at room temperature (22° C.) and then read in a Microbeta Trilux.
Curves are evaluated using a 4-parameter logistic nonlinear equation to obtain the concentration of competitor causing 50% inhibition of radioligand binding (IC50). Equilibrium dissociation constants (Ki) are calculated according to the equation Ki=IC50/(1+L/Kd), where L equals the concentration of radioligand used in the experiment and Kd equals the equilibrium dissociation constant of the radioligand for the receptor, determined from standard saturation analysis or homologous competition experiments. […]

5-HT2B receptors = 5-HT2B receptors (Homo sapiens, UniProt P41595); assay: 5-HT2B agonist functional activity assay; type: cell-based
Sequence of 5-HT2B receptors (P41595 whole entry): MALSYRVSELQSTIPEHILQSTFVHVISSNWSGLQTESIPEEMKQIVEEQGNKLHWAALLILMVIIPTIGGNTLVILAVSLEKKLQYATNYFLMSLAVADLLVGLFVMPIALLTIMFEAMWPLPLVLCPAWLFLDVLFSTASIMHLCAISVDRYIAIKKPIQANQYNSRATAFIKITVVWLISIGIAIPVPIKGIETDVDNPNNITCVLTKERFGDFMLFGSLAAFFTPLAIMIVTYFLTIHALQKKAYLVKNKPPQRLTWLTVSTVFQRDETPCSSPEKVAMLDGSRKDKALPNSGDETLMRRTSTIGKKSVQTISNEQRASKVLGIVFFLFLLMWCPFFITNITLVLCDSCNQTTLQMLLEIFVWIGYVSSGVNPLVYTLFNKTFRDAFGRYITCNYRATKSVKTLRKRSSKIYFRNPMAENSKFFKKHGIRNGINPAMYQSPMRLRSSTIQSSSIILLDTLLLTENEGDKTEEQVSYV
From the text: (§1) Further, the compounds of the invention may be tested in binding assays and functional activity assays by well known methods for other physiologically important receptors such as, but not limited to, the hERG channel, other serotonin receptors (specifically 5-HT1A, 5-HT1B, 5-HT1D, 5-HT1E, 5-HT1F receptors, lack of agonist activity at 5-HT2B receptors, 5-HT2C, 5-HT4, 5-HTS, 5-HT6, and 5-HT7 receptors), muscarinic receptors, dopaminergic receptors (specifically D1, D2, and D3), GABAA receptors, adrenergic receptors and monoamine transporters. Certain exemplified compounds are tested at these receptors and are shown to lack significant activity.

Dopamine D3 = Dopamine D3 (Homo sapiens, UniProt P35462); assay: Dopamine D3 binding
Sequence of Dopamine D3 (P35462 whole entry): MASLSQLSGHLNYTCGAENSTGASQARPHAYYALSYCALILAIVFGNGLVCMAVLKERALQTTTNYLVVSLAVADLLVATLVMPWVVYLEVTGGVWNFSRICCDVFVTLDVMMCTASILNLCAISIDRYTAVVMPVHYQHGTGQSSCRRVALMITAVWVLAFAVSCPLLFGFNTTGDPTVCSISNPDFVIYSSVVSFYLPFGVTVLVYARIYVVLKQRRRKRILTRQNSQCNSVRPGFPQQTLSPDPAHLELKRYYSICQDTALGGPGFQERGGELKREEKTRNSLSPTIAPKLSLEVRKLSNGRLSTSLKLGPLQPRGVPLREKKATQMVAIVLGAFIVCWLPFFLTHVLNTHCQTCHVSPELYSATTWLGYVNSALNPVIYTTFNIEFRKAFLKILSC
From the text: as §1

Adrenergic alpha2A = Adrenergic alpha2A (Homo sapiens, UniProt P08913); assay: Adrenergic alpha2A binding
Sequence of Adrenergic alpha2A (P08913 whole entry): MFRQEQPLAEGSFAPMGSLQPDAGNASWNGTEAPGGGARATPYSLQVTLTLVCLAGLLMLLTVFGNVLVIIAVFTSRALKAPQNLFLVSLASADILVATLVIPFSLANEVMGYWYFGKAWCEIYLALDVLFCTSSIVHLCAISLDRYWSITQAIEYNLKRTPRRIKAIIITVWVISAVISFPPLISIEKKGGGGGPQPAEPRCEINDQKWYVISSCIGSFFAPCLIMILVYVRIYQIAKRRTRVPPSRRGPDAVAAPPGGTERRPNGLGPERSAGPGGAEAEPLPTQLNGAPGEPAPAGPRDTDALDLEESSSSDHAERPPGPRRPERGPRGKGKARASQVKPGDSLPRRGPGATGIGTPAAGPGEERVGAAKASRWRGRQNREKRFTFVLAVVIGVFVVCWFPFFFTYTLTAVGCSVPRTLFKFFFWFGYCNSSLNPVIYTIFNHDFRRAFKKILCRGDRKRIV
From the text: as §1

H1 receptor = biological target: T2, H1 receptor (Rattus norvegicus, UniProt P31390); assay: Histamine H1 receptor occupancy in vivo (doxepin tracer); settings: oral gavage, 1 hour before tracer, read-out: H1 RO EC50
T2 construct: from tissue; host or cells: living rat; frontal cortex
T2 sequence (P31390 whole entry): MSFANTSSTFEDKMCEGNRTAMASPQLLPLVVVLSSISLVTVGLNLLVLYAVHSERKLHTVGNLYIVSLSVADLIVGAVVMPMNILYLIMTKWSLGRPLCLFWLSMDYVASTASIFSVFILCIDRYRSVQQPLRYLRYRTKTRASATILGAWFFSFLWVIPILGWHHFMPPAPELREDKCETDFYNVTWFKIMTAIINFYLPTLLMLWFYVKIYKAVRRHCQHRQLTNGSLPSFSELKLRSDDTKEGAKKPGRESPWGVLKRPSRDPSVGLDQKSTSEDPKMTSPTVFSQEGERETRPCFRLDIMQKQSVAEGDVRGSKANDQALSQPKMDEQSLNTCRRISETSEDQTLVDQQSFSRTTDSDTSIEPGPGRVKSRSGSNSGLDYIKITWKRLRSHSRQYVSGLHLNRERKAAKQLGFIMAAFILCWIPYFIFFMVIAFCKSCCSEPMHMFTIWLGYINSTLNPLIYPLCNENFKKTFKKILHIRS
Procedure: Statistical Methods: Curves for each study are fitted to a 4 parameter logistic function with the bottom fixed at 0% using JMP® version 8.0 (SAS Institute Inc, Cary N.C.) and the absolute ED50 is calculated by the software. Values are given as means, standard errors and 95% confidence intervals. […] Briefly, male Sprague-Dawley rats (Harlan Sprague-Dawley, Indianapolis, Ind.) weighing approximately 230-280 grams are given ad lib access to food and water until the beginning of the 3-hour experimental protocol. 3-[4-(8-Fluorodibenzo[b,f][1,4]oxazepin-1′-yl)piperazin-1-yl]-2,2-dimethylpropanoic acid dihydrochloride is used as a positive control and doxepin is used as a tracer. Test compounds and control are administered by oral gavage in a vehicle comprised of 20% hydroxypropyl beta-cyclodextrin. Doxepin is dissolved in sterile water (100 μg/ml), diluted to 2 μg/ml with saline, and administered in a volume of 0.5 mL/kg intravenously via the lateral tail vein to yield a tracer dose of 1 μg/kg. Rats are administered test compound, 15 mg/kg positive control, or vehicle, followed 1 hour later by an intravenous “tracer” dose of doxepin (N=4). It is at the time of tracer administration that RO is considered to be measured. 40 mins after tracer administration, rats are sacrificed by cervical dislocation. Plasma samples are collected and the frontal cortex is removed. […]

T1 sequence (P28335 33-458): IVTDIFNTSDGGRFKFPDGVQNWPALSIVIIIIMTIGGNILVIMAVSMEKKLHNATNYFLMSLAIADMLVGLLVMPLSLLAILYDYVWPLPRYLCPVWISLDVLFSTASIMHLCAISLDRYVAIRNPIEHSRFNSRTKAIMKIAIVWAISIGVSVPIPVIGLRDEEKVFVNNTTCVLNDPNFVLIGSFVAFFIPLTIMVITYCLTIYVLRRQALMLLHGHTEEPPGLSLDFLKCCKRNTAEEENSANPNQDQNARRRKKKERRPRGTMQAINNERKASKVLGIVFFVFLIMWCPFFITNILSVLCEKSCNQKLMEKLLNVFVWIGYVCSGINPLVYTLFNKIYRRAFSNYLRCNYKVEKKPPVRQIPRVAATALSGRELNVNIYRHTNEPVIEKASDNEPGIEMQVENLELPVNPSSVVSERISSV

## Cc1cc2n(c1)Cc1cc(Cl)ccc1N=C2N1CCN(CC(C)(C)C(=O)O)CC1 [Example 13, 3-[4-(7-Chloro-2-methyl-5H-pyrrolo[2,1-c][1,4]benzodiazepin-11-yl)piperazin-1-yl]-2,2-dimethylpropanoic acid dihydrochloride]
[1]
  Ki: 2.37 µM
5-HT2B receptors
  EC50: > 10 µM
Dopamine D3
  Ki: > 4.11 µM
Adrenergic alpha2A
  Ki: > 8.47 µM
H1 receptor
  ED50: 0.3 mg/kg
